Results reported in ChEMBL document CHEMBL3612043, “Synthesis and biological evaluation of 6-substituted indolizinoquinolinediones as catalytic DNA topoisomerase I inhibitors” (Eur J Med Chem, 2015).
Active and inactive are the calls of the source. The calls are words filed in the database; no cut-off is given here.

Columns and labels:
[1] = molecular target: T1, DNA topoisomerase 1 (Homo sapiens) (UniProt P11387); assay: Inhibition of Top1 (unknown origin)-mediated unwinding of relaxed pBR322 DNA preincubated for 10 mins measured after 30 mins by UV transilluminator analysis
T1 sequence (whole entry): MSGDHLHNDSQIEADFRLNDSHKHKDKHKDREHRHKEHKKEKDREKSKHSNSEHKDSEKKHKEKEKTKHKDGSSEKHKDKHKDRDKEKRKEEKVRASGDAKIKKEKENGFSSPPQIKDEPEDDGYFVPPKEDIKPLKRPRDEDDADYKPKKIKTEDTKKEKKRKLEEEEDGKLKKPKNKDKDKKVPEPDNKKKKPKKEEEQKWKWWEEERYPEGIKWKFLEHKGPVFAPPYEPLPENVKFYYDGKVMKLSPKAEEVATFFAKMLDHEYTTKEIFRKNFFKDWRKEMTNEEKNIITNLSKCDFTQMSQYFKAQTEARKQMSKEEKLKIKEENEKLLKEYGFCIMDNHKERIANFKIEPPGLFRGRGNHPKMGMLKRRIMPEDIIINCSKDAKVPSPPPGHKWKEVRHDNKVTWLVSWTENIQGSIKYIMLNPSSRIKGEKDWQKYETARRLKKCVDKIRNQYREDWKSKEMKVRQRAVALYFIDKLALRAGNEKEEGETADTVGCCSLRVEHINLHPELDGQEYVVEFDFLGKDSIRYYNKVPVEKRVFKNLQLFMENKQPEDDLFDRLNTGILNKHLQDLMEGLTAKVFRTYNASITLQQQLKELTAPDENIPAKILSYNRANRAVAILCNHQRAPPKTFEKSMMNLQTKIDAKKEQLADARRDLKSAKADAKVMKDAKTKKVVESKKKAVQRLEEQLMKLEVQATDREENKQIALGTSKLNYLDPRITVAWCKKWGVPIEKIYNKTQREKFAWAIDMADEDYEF

[2] = system: CA46; assay: Cytotoxicity against human CA46 cells after 48 hrs by MTT assay; format: functional, cell-based; conditions: CA46, 48 h
[3] = system: HL-60; assay: cells; conditions: Homo sapiens, HL-60, 48 h
Description: Cytotoxicity against human HL60 cells after 48 hrs by MTT assay

[4] = organism: Bos taurus; assay: Inhibition of calf thymus Top1-mediated pBR322 DNA relaxation at 25 uM preincubated for 15 mins measured after 30 mins by ethidium bromide staining relative to camptothecin
[5] = system: HeLa; assay: cells; conditions: Homo sapiens, 48 h
Description: Cytotoxicity against human HeLa cells after 48 hrs by MTT assay

[6] = system: A549; assay: cells; conditions: Homo sapiens, A549, 48 h
Description: Cytotoxicity against human A549 cells after 48 hrs by MTT assay

[7] = molecular target: T1, DNA topoisomerase 1 (Homo sapiens); assay: Induction of recombinant Top1 (unknown origin) assessed as 3'-[32P]-labeled 117-bp DNA oligonucleotide cleavage after 20 mins
[8] = Inhibition of calf thymus Top1-mediated pBR322 DNA relaxation preincubated for 15 mins measured after 30 mins by ethidium bromide staining; set-up: species or system Bos taurus

Row | Structure (SMILES) | inhibition [1] | IC50 [2] [nM] | IC50 [3] [nM] | Top1 relaxation inhibition relative to camptothecin (%) [4] [%] | IC50 [5] [nM] | IC50 [6] [nM] | Activity [7] | IC50 [8] [nM]
1 | O=C1c2cccnc2C(=O)c2c1c(C(=O)OCCCN1CCOCC1)c1ccccn21 | Active | 1400 | 64 | > 120 | 2200 | 1900 | inactive | 
2 | O=C1c2cccnc2C(=O)c2c1c(C(=O)N1CCCCC1)c1ccccn21 |  | 13000 | 52000 | < 40 | 19000 | 76000 | inactive | 
3 | O=C1c2cccnc2C(=O)c2c1c(C(=O)NCCCN1CCCC1)c1ccccn21 | Active | 2700 | 1900 | > 120 | 1800 | 1200 | inactive | 
4 | CN1CCN(CCCNC(=O)c2c3c(n4ccccc24)C(=O)c2ncccc2C3=O)CC1 | Active | 3800 | 2200 | > 120 | 8900 | 5500 | inactive | 
5 | O=C1c2cccnc2C(=O)c2c1c(C(=O)OCCN1CCCC1)c1ccccn21 |  |  |  |  |  |  | inactive | 
6 | O=C1c2cccnc2C(=O)c2c1c(C(=O)NCCCc1ccccc1)c1ccccn21 |  | 14000 | 75000 | 40 | 29000 | 15000 | inactive | 
7 | CCN(CC)CCCNC(=O)c1c2c(n3ccccc13)C(=O)c1ncccc1C2=O | Active | 1200 | 1400 | > 120 | 1300 | 1000 | inactive | 
8 | CN1CCN(C(=O)c2c3c(n4ccccc24)C(=O)c2ncccc2C3=O)CC1 |  | 2600 | 5700 | 40 | 62000 | 30000 | inactive | 
9 | O=C1c2cccnc2C(=O)c2c1c(C(=O)OCCc1ccccn1)c1ccccn21 | inactive | 2900 | 110 | 81 | 1100 | 7800 | inactive | 
10 | O=C1c2cccnc2C(=O)c2c1c(C(=O)NCCN1CCCCC1)c1ccccn21 |  |  |  |  |  |  | inactive | 
11 | CCOC(=O)c1c2c(n3ccccc13)C(=O)c1ncccc1C2=O | inactive | 3700 | 300 | 81 | 22000 | 1400 | inactive | 
12 | O=C1c2cccnc2C(=O)c2c1c(C(=O)OCCCN1CCCCC1)c1ccccn21 | Active | 900 | 25 | > 120 | 480 | 1000 | inactive | 
13 | O=C1c2cccnc2C(=O)c2c1c(C(=O)NCCN1CCCC1)c1ccccn21 | Active | 15000 | 1200 | > 120 | 780 | 490 | inactive | 
14 | O=C1c2cccnc2C(=O)c2c1c(C(=O)OCCCBr)c1ccccn21 |  |  |  |  |  |  | inactive | 
15 | O=C1c2cccnc2C(=O)c2c1c(C(=O)OCCN1CCOCC1)c1ccccn21 | inactive | 5800 | 34 | > 120 | 10000 | < 10 | inactive | 
16 | O=C1c2cccnc2C(=O)c2c1c(C(=O)NCCN1CCOCC1)c1ccccn21 | Active | 3400 | 1200 | > 120 | 1600 | 890 | inactive | 
17 | O=C1c2cccnc2C(=O)c2c1c(C(=O)N1CCOCC1)c1ccccn21 |  | 13000 | 22000 | < 40 | > 100000 | 77000 | inactive | 
18 | CC[C@@]1(O)C(=O)OCc2c1cc1n(c2=O)Cc2cc3ccccc3nc2-1 [CAMPTOTHECIN] |  | 520 | 15 | 81 | 14000 | 1600 | inactive | 25000
19 | CCN(CC)C(=O)c1c2c(n3ccccc13)C(=O)c1ncccc1C2=O |  | 15000 | 14000 | < 40 | 46000 | 64000 | inactive | 
20 | O=C1c2cccnc2C(=O)c2c1c(C(=O)NCCCN1CCOCC1)c1ccccn21 | Active | 1100 | 1300 | > 120 | 5900 | 4200 | inactive | 
21 | O=C1c2cccnc2C(=O)c2c1c(C(=O)OCCN1CCCCC1)c1ccccn21 | Active | 3000 | 320 | > 120 | 2200 | 520 | inactive | 
22 | O=C1c2cccnc2C(=O)c2c1c(C(=O)NCCc1ccccc1)c1ccccn21 |  | 7900 | 14000 | < 40 | 17000 | 19000 | inactive | 
23 | O=C1c2cccnc2C(=O)c2c1c(C(=O)OCCBr)c1ccccn21 |  |  |  |  |  |  | inactive | 
24 | O=C1c2cccnc2C(=O)c2c1c(C(=O)OCCCN1CCCC1)c1ccccn21 | Active | 1100 | 26 | > 120 | 940 | 140 | inactive | 
25 | CN(C)CCCNC(=O)c1c2c(n3ccccc13)C(=O)c1ncccc1C2=O | Active | 1200 | 2300 | > 120 | 960 | 370 | inactive | 
26 | CN(C)CCNC(=O)c1c2c(n3ccccc13)C(=O)c1ncccc1C2=O | Active | 5900 | 1200 | > 120 | 920 | 610 | inactive | 
27 | CN1CCN(CCNC(=O)c2c3c(n4ccccc24)C(=O)c2ncccc2C3=O)CC1 | Active | 1100 | 2800 | > 120 | 1000 | 440 | inactive | 
28 | O=C1c2cccnc2C(=O)c2c1c(C(=O)NCCCN1CCCCC1)c1ccccn21 | Active | 1200 | 1300 | > 120 | 1200 | 3300 | inactive | 
29 | O=C1c2cccnc2C(=O)c2c1c(C(=O)NCCn1ccnc1)c1ccccn21 | inactive | 2900 | 2300 | > 120 | 5800 | 2300 | inactive | 
30 | CCNC(=O)c1c2c(n3ccccc13)C(=O)c1ncccc1C2=O |  |  |  |  |  |  | inactive | 
